The values below come from PMC12439166, “Dietary flavonoids form supramolecular assemblies, alter biochemistry, and enhance cell resilience” (Frontiers in Nutrition, 2025).

SMILES strings stand for the structures.

This experiment concerns human fibroblasts. As to the kind of experiment: TMT proteomics of fibroblasts with and without UV exposure, differential expression and pathway analysis. Conditions: result in words. It counts as cell-based. As for the experimental part: Human fibroblasts were obtained from Cell Applications Inc (Cat. # 106-05a) and were maintained in Dulbecco’s Modified Eagle medium (DMEM, Corning, Cat. #10-013-CV) with 10% fetal bovine serum (Gibco, Cat. #10082147) and 1% penicillin/streptomycin (Gibco, Cat. # 15070-063) in a humidified incubator with 5% CO2 at 37 °C. For ultraviolet radiation, fibroblasts were seeded in a 96-well plate at a density of 25,000 cells/well and maintained at 37 °C for 24 h. Cells were washed once with Hanks’ balanced salt solution (HBSS, Gibco, Cat. #14025-092), then treated for 1 h with different concentrations of compounds prepared in HBSS. Vitamin C (Sigma, Cat. # A5960) served as a positive control. Treated cells were exposed to ultraviolet light (UVP cross-linker, CL1000, 254 nm UV, 8 watts) at a total dose of 20 mJ/cm^2. Following irradiation, the HBSS was replaced with culture medium containing the same concentration of compounds as before irradiation, and cells were again maintained at 37 °C. Cell viability was measured at 24 h post-irradiation using CellTiter-Glo according to the manufacturer’s instructions (Promega, Cat.# G7571). Results were expressed as relative cell viability (%) with respect to control cells (cells without ultraviolet irradiation or compound treatment).
Frozen cell pellets were dissolved for 15 min in 6M Guanidinium Chloride at room temperature to lyse cells. Then, each solution was run on a 10 kDa filter (Pall, TX) and washed with 50 μL of TEAB buffer at 3000 rpm. FASP Digestion ([56]): A stock solution of Trypsin Platinum, Mass Spec Grade (Promega) at 100 μg/mL in 50 mM TEAB, and a specific volume of stock trypsin was added to each sample vial for each set of […] using a 1:50 ratio (Trypsin:Protein). Samples were incubated for 2 h at 50 °C and shaken/mixed at 350 rpm on an Eppendorf ThermoMixer C. TMT Labeling: Samples, now peptides, were labeled using 4 μL of TMTpro Mass Tag Labels (ThermoScientific). After labeling, samples were then shaken/mixed for 45 min to ensure labels were covalently bonded to peptides. The labeling reaction was quenched for 10 min using 1 μL of 5% hydroxyalamine. After quenching, samples were pooled into one 2 mL Eppendorf tube and then dried down using an Eppendorf Vacufuge Plus. Desalting Samples: Dried samples were resuspended in 300 μL of 0.1% TFA in ultrapure HPLC-grade water and vortexed to ensure full solubility. Samples were then desalted using Pierce^TM Peptide Desalting Spin Columns (ThermoScientific). Final eluates (desalted samples) contained 600 μL of 50% HPLC-grade Acetonitrile and 50% ultrapure HPLC-grade water. Desalted samples were then transferred to HPLC vials and were again dried down. […]

As to `O=C1O[C@H]([C@@H](O)CO)C(O)=C1O` [Vitamin C, reference compound], for the setting “UV-irradiated cells”, the “proteins/pathways up- and downregulated, exposed to UV radiation” value was “primarily upregulated proteins associated with cell cycle/DNA repair-related pathways”. Besides, the “proteins/pathways up- and downregulated, without UV treatment” value (control conditions without UV) is “opposite effects”.
